Laboratory results as given in patent US9695155B2, “Herbicidal substituted pyrimidinyloxy benzene compounds” (E. I. DU PONT DE NEMOURS AND COMPANY, priority 2013, dated 2017).

Tests used:
barnyardgrass [1] = test: Test A preemergence; format: in vivo, Echinochloa crus-galli; conditions: 0 to 100 scale where 0 is no effect and 100 is complete control; for Plant response rating, Barnyardgrass: 125 g ai/ha; for Barnyardgrass plant response rating: 500 g ai/ha
In short: (§1)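 Visual injury scored 0–100 (100 = complete control) against untreated controls about 10 days after treatment in a greenhouse. Test chemicals, formulated with surfactant in non-phytotoxic solvent, were sprayed on soil preemergence or on 2-10 cm, one- to two-leaf plants postemergence.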

giant foxtail = test: Test A preemergence; format: in vivo, Setaria faberii; conditions: 0 to 100 scale where 0 is no effect and 100 is complete control; for Plant response rating, Foxtail, Giant: 125 g ai/ha; for Foxtail, Giant plant response rating: 500 g ai/ha
In short: as §1

pigweed [2] = test: Test A preemergence; format: in vivo, Amaranthus retroflexus; conditions: for Pigweed plant response rating (0 to 100 scale): 125 g ai/ha; for Pigweed plant response rating: 500 g ai/ha, 0 to 100 scale where 0 is no effect and 100 is complete control
In short: as §1

wheat = test: Test A preemergence; format: in vivo, Triticum aestivum; conditions: for Wheat plant response rating (0 to 100 scale): 125 g ai/ha; for Wheat plant response rating: 500 g ai/ha, 0 to 100 scale where 0 is no effect and 100 is complete control
In short: as §1

pigweed [3] = test: Test A postemergence; format: in vivo, Amaranthus retroflexus; conditions: 0 to 100 scale where 0 is no effect and 100 is complete control; for Pigweed plant response rating: 125 g ai/ha; for Plant response rating, Pigweed: 500 g ai/ha
In short: as §1

velvetleaf = test: Test A postemergence; format: in vivo, Abutilon theophrasti; conditions: 0 to 100 scale where 0 is no effect and 100 is complete control; for Velvetleaf plant response rating: 125 g ai/ha; for Plant response rating, Velvetleaf: 500 g ai/ha
In short: as §1

blackgrass = test: Test C postemergence; format: in vivo, Alopecurus myosuroides; conditions: for Plant response rating (0 to 100), Blackgrass: 16 g ai/ha, 0 is no effect, 100 is complete control; for Blackgrass plant response rating: 31 g ai/ha, 13 to 15 days; for Blackgrass plant response rating / Plant response rating, Blackgrass: scale 0 to 100 (0 no effect, 100 complete control)
In short: (§2)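 Seeds are planted in blended loam soil and sand and treated preemergence, while seedlings in a peat moss/vermiculite medium receive postemergence sprays at 2 to 18 cm height. All plants stay in the greenhouse for 13 to 15 days before visual comparison with controls on a 0–100 scale.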

galium = test: Test C postemergence; format: in vivo, Galium aparine; conditions: for Plant response rating (0 to 100), Galium: 16 g ai/ha, 0 is no effect, 100 is complete control; for Galium plant response rating: 31 g ai/ha, 13 to 15 days; for Galium plant response rating / Plant response rating, Galium: scale 0 to 100 (0 no effect, 100 complete control)
In short: as §2

large (Lg) crabgrass = test: Test C postemergence; format: in vivo, Digitaria sanguinalis; conditions: for Plant response rating (0 to 100), Crabgrass, Large: 16 g ai/ha, 0 is no effect, 100 is complete control; for Crabgrass, Large plant response rating: 31 g ai/ha, 13 to 15 days; for Crabgrass, Large plant response rating / Plant response rating, Crabgrass, Large: scale 0 to 100 (0 no effect, 100 complete control)
In short: as §2

johnsongrass = test: Test C postemergence; format: in vivo, Sorghum halepense; conditions: for Plant response rating (0 to 100), Johnsongrass: 16 g ai/ha, 0 is no effect, 100 is complete control; for Johnsongrass plant response rating: 31 g ai/ha, 13 to 15 days; for Johnsongrass plant response rating / Plant response rating, Johnsongrass: scale 0 to 100 (0 no effect, 100 complete control)
In short: as §2

lambsquarters = test: Test C postemergence; format: in vivo, Chenopodium album; conditions: for Plant response rating (0 to 100), Lambsquarters: 16 g ai/ha, 0 is no effect, 100 is complete control; for Lambsquarters plant response rating: 31 g ai/ha, 13 to 15 days; for Lambsquarters plant response rating / Plant response rating, Lambsquarters: scale 0 to 100 (0 no effect, 100 complete control)
In short: as §2

barnyardgrass [4] = test: Test C postemergence; format: in vivo, Echinochloa crus-galli; conditions: for Plant response rating (0 to 100), Barnyardgrass: 16 g ai/ha, 0 is no effect, 100 is complete control; for Barnyardgrass plant response rating: 31 g ai/ha, 13 to 15 days; for Barnyardgrass plant response rating / Plant response rating, Barnyardgrass: scale 0 to 100 (0 no effect, 100 complete control)
In short: as §2

oilseed rape = test: Test C postemergence; format: in vivo, Brassica napus; conditions: for Plant response rating (0 to 100), Oilseed Rape: 16 g ai/ha, 0 is no effect, 100 is complete control; for Oilseed Rape plant response rating: 31 g ai/ha, 13 to 15 days; for Oilseed Rape plant response rating / Plant response rating, Oilseed Rape: scale 0 to 100 (0 no effect, 100 complete control)
In short: as §2

waterhemp = test: Test C postemergence; format: in vivo, Amaranthus rudis; conditions: for Plant response rating (0 to 100), Waterhemp: 16 g ai/ha, 0 is no effect, 100 is complete control; for Waterhemp plant response rating: 31 g ai/ha, 13 to 15 days; for Waterhemp plant response rating / Plant response rating, Waterhemp: scale 0 to 100 (0 no effect, 100 complete control)
In short: as §2

wild oat = test: Test C postemergence; format: in vivo, Avena fatua; conditions: for Plant response rating (0 to 100), Oat, Wild: 16 g ai/ha, 0 is no effect, 100 is complete control; for Oat, Wild plant response rating: 31 g ai/ha, 13 to 15 days; for Oat, Wild plant response rating / Plant response rating, Oat, Wild: scale 0 to 100 (0 no effect, 100 complete control)
In short: as §2

[5] = 125 g ai/ha, postemergence, visual rating

Fc1cccc(Oc2ncc(Cl)cn2)c1-n1cc(Cl)cn1 [Compound 177]
Plant response rating, Barnyardgrass (barnyardgrass [1]): 70
Barnyardgrass plant response rating (barnyardgrass [1]): 100
Plant response rating, Foxtail, Giant (giant foxtail): 100
Foxtail, Giant plant response rating (giant foxtail): 100
Pigweed plant response rating (0 to 100 scale) (pigweed [2]): 100
Pigweed plant response rating (pigweed [2]): 100
Wheat plant response rating (0 to 100 scale) (wheat): 0
Wheat plant response rating (wheat): 50
Pigweed plant response rating (pigweed [3]): 100
Plant response rating, Pigweed (pigweed [3]): 100
Velvetleaf plant response rating (velvetleaf): 100
Plant response rating, Velvetleaf (velvetleaf): 100
Plant response rating (0 to 100), Blackgrass (blackgrass; postemergence): 0
Blackgrass plant response rating (blackgrass; postemergence, visual rating): 5
Plant response rating, Blackgrass (blackgrass; [5]): 35
Plant response rating, Blackgrass (blackgrass; Postemergence, 62 g ai/ha): 5
Plant response rating (0 to 100), Galium (galium; postemergence): 60
Galium plant response rating (galium; postemergence, visual rating): 50
Plant response rating, Galium (galium; [5]): 98
Plant response rating, Galium (galium; Postemergence, 62 g ai/ha): 85
Plant response rating (0 to 100), Crabgrass, Large (large (Lg) crabgrass; postemergence): 5
Crabgrass, Large plant response rating (large (Lg) crabgrass; postemergence, visual rating): 5
Plant response rating, Crabgrass, Large (large (Lg) crabgrass; [5]): 10
Plant response rating, Crabgrass, Large (large (Lg) crabgrass; Postemergence, 62 g ai/ha): 10
Plant response rating (0 to 100), Johnsongrass (johnsongrass; postemergence): 5
Johnsongrass plant response rating (johnsongrass; postemergence, visual rating): 5
Plant response rating, Johnsongrass (johnsongrass; [5]): 10
Plant response rating, Johnsongrass (johnsongrass; Postemergence, 62 g ai/ha): 5
Plant response rating (0 to 100), Lambsquarters (lambsquarters; postemergence): 60
Lambsquarters plant response rating (lambsquarters; postemergence, visual rating): 65
Plant response rating, Lambsquarters (lambsquarters; [5]): 90
Plant response rating, Lambsquarters (lambsquarters; Postemergence, 62 g ai/ha): 75
Plant response rating (0 to 100), Barnyardgrass (barnyardgrass [4]; postemergence): 5
Barnyardgrass plant response rating (barnyardgrass [4]; postemergence, visual rating): 5
Plant response rating, Barnyardgrass (barnyardgrass [4]; [5]): 10
Plant response rating, Barnyardgrass (barnyardgrass [4]; Postemergence, 62 g ai/ha): 10
Plant response rating (0 to 100), Oilseed Rape (oilseed rape; postemergence): 60
Oilseed Rape plant response rating (oilseed rape; postemergence, visual rating): 80
Plant response rating, Oilseed Rape (oilseed rape; [5]): 90
Plant response rating, Oilseed Rape (oilseed rape; Postemergence, 62 g ai/ha): 90
Plant response rating (0 to 100), Waterhemp (waterhemp; postemergence): 70
Waterhemp plant response rating (waterhemp; postemergence, visual rating): 75
Plant response rating, Waterhemp (waterhemp; [5]): 100
Plant response rating, Waterhemp (waterhemp; Postemergence, 62 g ai/ha): 95
Plant response rating (0 to 100), Oat, Wild (wild oat; postemergence): 5
Oat, Wild plant response rating (wild oat; postemergence, visual rating): 0
Plant response rating, Oat, Wild (wild oat; [5]): 30
Plant response rating, Oat, Wild (wild oat; Postemergence, 62 g ai/ha): 10

FC(F)c1cccc(Oc2ncc(Br)cn2)c1-n1cc(C(F)(F)F)cn1 [Compound 163]
Plant response rating, Barnyardgrass (barnyardgrass [1]): 50
Barnyardgrass plant response rating (barnyardgrass [1]): 100
Plant response rating, Foxtail, Giant (giant foxtail): 100
Foxtail, Giant plant response rating (giant foxtail): 100
Pigweed plant response rating (0 to 100 scale) (pigweed [2]): 100
Pigweed plant response rating (pigweed [2]): 100
Wheat plant response rating (0 to 100 scale) (wheat): 0
Wheat plant response rating (wheat): 10
Pigweed plant response rating (pigweed [3]): 100
Plant response rating, Pigweed (pigweed [3]): 100
Velvetleaf plant response rating (velvetleaf): 100
Plant response rating, Velvetleaf (velvetleaf): 100
Plant response rating (0 to 100), Blackgrass (blackgrass; postemergence): 0
Blackgrass plant response rating (blackgrass; postemergence, visual rating): 5
Plant response rating, Blackgrass (blackgrass; [5]): 15
Plant response rating, Blackgrass (blackgrass; Postemergence, 62 g ai/ha): 5
Plant response rating (0 to 100), Galium (galium; postemergence): 70
Galium plant response rating (galium; postemergence, visual rating): 50
Plant response rating, Galium (galium; [5]): 95
Plant response rating, Galium (galium; Postemergence, 62 g ai/ha): 85
Plant response rating (0 to 100), Crabgrass, Large (large (Lg) crabgrass; postemergence): 5
Crabgrass, Large plant response rating (large (Lg) crabgrass; postemergence, visual rating): 5
Plant response rating, Crabgrass, Large (large (Lg) crabgrass; [5]): 10
Plant response rating, Crabgrass, Large (large (Lg) crabgrass; Postemergence, 62 g ai/ha): 10
Plant response rating (0 to 100), Johnsongrass (johnsongrass; postemergence): 5
Johnsongrass plant response rating (johnsongrass; postemergence, visual rating): 5
Plant response rating, Johnsongrass (johnsongrass; [5]): 10
Plant response rating, Johnsongrass (johnsongrass; Postemergence, 62 g ai/ha): 5
Plant response rating (0 to 100), Lambsquarters (lambsquarters; postemergence): 60
Lambsquarters plant response rating (lambsquarters; postemergence, visual rating): 80
Plant response rating, Lambsquarters (lambsquarters; [5]): 95
Plant response rating, Lambsquarters (lambsquarters; Postemergence, 62 g ai/ha): 85
Plant response rating (0 to 100), Barnyardgrass (barnyardgrass [4]; postemergence): 5
Barnyardgrass plant response rating (barnyardgrass [4]; postemergence, visual rating): 5
Plant response rating, Barnyardgrass (barnyardgrass [4]; [5]): 5
Plant response rating, Barnyardgrass (barnyardgrass [4]; Postemergence, 62 g ai/ha): 5
Plant response rating (0 to 100), Oilseed Rape (oilseed rape; postemergence): 45
Oilseed Rape plant response rating (oilseed rape; postemergence, visual rating): 30
Plant response rating, Oilseed Rape (oilseed rape; [5]): 80
Plant response rating, Oilseed Rape (oilseed rape; Postemergence, 62 g ai/ha): 60
Plant response rating (0 to 100), Waterhemp (waterhemp; postemergence): 75
Waterhemp plant response rating (waterhemp; postemergence, visual rating): 75
Plant response rating, Waterhemp (waterhemp; [5]): 80
Plant response rating, Waterhemp (waterhemp; Postemergence, 62 g ai/ha): 85
Plant response rating (0 to 100), Oat, Wild (wild oat; postemergence): 0
Oat, Wild plant response rating (wild oat; postemergence, visual rating): 5
Plant response rating, Oat, Wild (wild oat; [5]): 20
Plant response rating, Oat, Wild (wild oat; Postemergence, 62 g ai/ha): 10
